Test results: patent EP0346760A2, “Derivatives of nigericine, methods for their preparation, compositions containing them and their use” (priority 1988, dated 1989)
Converted amounts (≈) assume the structure as drawn. Where two headings read alike, the source gives them in different places.

What was measured:
Assay type in all cases: cell-based
Herpes I = settings: HeLa or Vero cells, 72 h CPE, about 50 % of the cells survive
Vaccina = settings: HeLa or Vero cells, 72 h CPE, about 50 % of the cells survive
HeLa- bzw. Vero-Zellen = test: Maximum tolerated dose (DTM) in cell culture; settings: HeLa or Vero cells
Description: Die Prüfsubstanzen wurden in Zellkulturmedium (Dulbecco's MEM) gelöst und in einer geometrischen Verdünnungsreihe, Faktor 3, in Standard-Mikrotiterplatten in 100 µl Zellkulturmedium vorgelegt. Anschließend erfolgte die Zugabe von 100 µl einer Suspension von HeLa- bzw. Vero-Zellen in Medium mit 5 % fötalem Kälberserum in einer Zelldichte von 2 x 10⁵ Zellen/ml. Die Ansätze wurden mit 50 µl einer Suspension des jeweiligen Test-Virus infiziert, die so eingestellt war, daß die Zellen innerhalb von 72 h einen cytopathogenen Effekt (CPE) zeigten. Die Auswertung erfolgte durch mikroskopische Begutachtung des Zellrasens und photometrische Messung der Neutralrotaufnahme (Farbtest nach Finter). Als MHK wurde die Konzentration des Präparats angenommen (µg/ml), bei der etwa 50 % der Zellen die Infektion überlebten.
In Spalte 9 ist die DTM (Dosis Tolerata Maxima) in µg/ml angegeben. Tabelle 4

Influenza A = settings: HeLa or Vero cells, 72 h CPE, about 50 % of the cells survive
Rhinovirus II = settings: Rhino. II; HeLa or Vero cells, 72 h CPE; about 50 % of the cells survive
Staph. aureus (503) = test: Agar dilution test (Lorian), antibacterial activity; settings: Staphylococcus aureus
Description: (§1) Die antibakterielle Wirksamkeit der erfindungsgemäßen Verbindungen wurde im Agar-Verdünnungstest nach Lorian (Antibiotics in Laboratory Medicine, Williams & Wilkins, Baltimore/London, 1980) bestimmt. Dabei wurden die Präparate in einer geometrischen Verdünnungsreihe mit dem Faktor 2 in Müller Hinton Agar verdünnt. Eine Petrischale enthielt nur Müller Hinton Agar und diente zur Kontrolle des Bakterienwachstums. Die Petrischalen wurden dann mit einem Denley-Multipoint-Inokulator, welcher 0,6 µl einer 1 : 100 verdünnten 18-Stunden-Kultur der Testbakterien übertrug, mit den entsprechenden Testbakterien beimpft. Nach 16 bis 18 Stunden Inkubation bei 37°C wurden die Petrischalen makroskopisch auf Bakterienwachstum untersucht.
(§2) Die niedrigste Konzentration der erfindungsgemäßen Verbindungen, welche das Bakterienwachstum noch vollständig verhinderte, wurde als MIC (Minimum Inhibitory Concentration) angenommen.
(§3) In Tabelle 3 ist die Wirkung (Angabe des MIC in µg/ml) von verschiedenen erfindungsgemäßen Verbindungen gegen folgende Bakterien aufgeführt: Staph. aureus (SG 511), Staph. aureus (285), Staph. aureus (503), Strept. pyogenes (308 A), Strept. pyogenes (77 A), Strept. faecium (D). Tabelle 3

Strept. faecium (D) = test: as above; settings: Enterococcus faecium
Description: as §1, §2, §3

Strept. pyogenes (77 A) = test: as above; settings: Streptococcus pyogenes
Description: as §1, §2, §3

Staph. aureus (SG 511) = test: as above; settings: Staphylococcus aureus
Description: as §1, §2, §3

Staph. aureus (285) = test: as above; settings: Staphylococcus aureus
Description: as §1, §2, §3

Strept. pyogenes (308 A) = test: as above; settings: Streptococcus pyogenes
Description: as §1, §2, §3

Herpes II = settings: HeLa or Vero cells, 72 h CPE, about 50 % of the cells survive
Adeno 5 = settings: HeLa or Vero cells, 72 h CPE, concentration at which about 50 % of the cells survive the infection
Paramyxo. III = settings: HeLa or Vero cells, 72 h CPE, about 50 % of the cells survive
[1] = Staph. aureus (503), Müller Hinton Agar, 16 to 18 h at 37°C, read-out: MIC
[2] = Strept. faecium (D), Müller Hinton Agar, 16 to 18 h at 37°C, read-out: MIC
[3] = Strept. pyogenes (77 A), Müller Hinton Agar, 16 to 18 h at 37°C, read-out: MIC
[4] = Staph. aureus (SG 511), Müller Hinton Agar, 16 to 18 h at 37°C, lowest concentration that completely prevents growth, read-out: MIC
[5] = Staph. aureus (285), Müller Hinton Agar, 16 to 18 h at 37°C, read-out: MIC
[6] = Strept. pyogenes (308 A), Müller Hinton Agar, 16 to 18 h at 37°C, read-out: MIC

In the case of `COC1CC(CC2CCC(C)C(C(C)C(=O)O)O2)OC2(OC(C)(C3CCC(C)(C4OC(C5OC(O)(CCl)C(C)CC5C)CC4C)O3)CC2C)C1C` (stereo not shown) [Beispiel 2], the MHK (Herpes I) is reported as 0,05 µg/ml, the MHK (Vaccina) is reported as 0,49 µg/ml and the “DTM (Dosis Tolerata Maxima)” value (HeLa- bzw. Vero-Zellen) is reported as 1,48 µg/ml. The MHK (Influenza A) was 0,05 µg/ml, the MHK (Rhinovirus II) was 0,49 µg/ml and the MIC (Staph. aureus (503); [1]) was 0.025 µg/mL (≈ 0.0336 µM). The MIC (Strept. faecium (D); [2]) was 0.391 µg/mL (≈ 0.526 µM), the MIC (Strept. pyogenes (77 A); [3]) was 0.007 µg/mL (≈ 0.00942 µM) and the MIC (Staph. aureus (SG 511); [4]) was 0.098 µg/mL (≈ 0.132 µM). The MIC (Staph. aureus (285); [5]) was 0.098 µg/mL (≈ 0.132 µM), the MIC (Strept. pyogenes (308 A); [6]) was 0.013 µg/mL (≈ 0.0175 µM) and the MHK (Herpes II) was < 0,02 µg/ml.

`COC1CC(CC2CCC(C)C(C(C)C(=O)O)O2)OC2(OC(C)(C3CCC(C)(C4OC(C5OC(O)(CBr)C(C)CC5C)CC4C)O3)CC2C)C1C` (stereo not shown) [Beispiel 3] was tested, and the MHK (Herpes I) was 0,01 µg/ml, the “DTM (Dosis Tolerata Maxima)” value (HeLa- bzw. Vero-Zellen) was 0,89 µg/ml and the MHK (Influenza A) was 0,03 µg/ml. For the same compound, the MHK (Rhinovirus II) was 0,3 µg/ml, the MIC (Staph. aureus (503); [1]) was 0.007 µg/mL (≈ 0.00888 µM) and the MIC (Strept. faecium (D); [2]) was 0.098 µg/mL (≈ 0.124 µM). For the same compound, the MIC (Strept. pyogenes (77 A); [3]) was < 0.002 µg/mL, the MIC (Staph. aureus (SG 511); [4]) was 0.013 µg/mL (≈ 0.0165 µM) and the MIC (Staph. aureus (285); [5]) was 0.013 µg/mL (≈ 0.0165 µM). For the same compound, the MIC (Strept. pyogenes (308 A); [6]) was < 0.002 µg/mL, the MHK (Adeno 5) was 0,01 µg/ml and the MHK (Herpes II) was 0,3 µg/ml.

With `COCC1(O)OC(C2CC(C)C(C3(C)CCC(C4(C)CC(C)C5(OC(CC6CCC(C)C(C(C)C(=O)O)O6)CC(OC)C5C)O4)O3)O2)C(C)CC1C` (stereo not shown) [Beispiel 7] the MHK (Herpes I) was 0,05 µg/ml, the MHK (Vaccina) was 0,49 µg/ml and the “DTM (Dosis Tolerata Maxima)” value (HeLa- bzw. Vero-Zellen) was 4,44 µg/ml. For the same compound, the MHK (Influenza A) was 0,05 µg/ml, the MHK (Rhinovirus II) was 1,48 µg/ml and the MIC (Staph. aureus (503); [1]) was 0.39 µg/mL (≈ 0.528 µM). The MIC (Strept. faecium (D); [2]) was 3.13 µg/mL (≈ 4.24 µM), the MIC (Strept. pyogenes (77 A); [3]) was 0.19 µg/mL (≈ 0.257 µM) and the MIC (Staph. aureus (SG 511); [4]) was 0.78 µg/mL (≈ 1.06 µM). The MIC (Staph. aureus (285); [5]) was 0.78 µg/mL (≈ 1.06 µM), the MIC (Strept. pyogenes (308 A); [6]) was 0.39 µg/mL (≈ 0.528 µM) and the MHK (Adeno 5) was 0,16 µg/ml. For the same compound, the MHK (Herpes II) was 0,05 µg/ml.

Work on `COC1CC(CC2CCC(C)C(C(C)C(=O)O)O2)OC2(OC(C)(C3CCC(C)(C4OC(C5OC(O)(C[N+](=O)[O-])C(C)CC5C)CC4C)O3)CC2C)C1C` (stereo not shown) [Beispiel 5] yielded an MIC (Staph. aureus (503); [1]) of 0.025 µg/mL (≈ 0.0332 µM), an MIC (Strept. faecium (D); [2]) of 0.098 µg/mL (≈ 0.13 µM) and an MIC (Strept. pyogenes (77 A); [3]) of 0.004 µg/mL (≈ 0.00531 µM). It also gave an MIC (Staph. aureus (SG 511); [4]) of 0.049 µg/mL (≈ 0.065 µM), an MIC (Staph. aureus (285); [5]) of 0.049 µg/mL (≈ 0.065 µM) and an MIC (Strept. pyogenes (308 A); [6]) of 0.004 µg/mL (≈ 0.00531 µM).

With `CCCCOCC1(O)OC(C2CC(C)C(C3(C)CCC(C4(C)CC(C)C5(OC(CC6CCC(C)C(C(C)C(=O)O)O6)CC(OC)C5C)O4)O3)O2)C(C)CC1C` (stereo not shown) [Beispiel 8] the MHK (Herpes I) was 4,44 µg/ml, the MHK (Vaccina) was 4,44 µg/ml and the “DTM (Dosis Tolerata Maxima)” value (HeLa- bzw. Vero-Zellen) was 13,3 µg/ml. For the same compound, the MHK (Influenza A) was 0,05 µg/ml, the MHK (Rhinovirus II) was 4,44 µg/ml and the MIC (Staph. aureus (503); [1]) was 0.78 µg/mL (≈ 0.999 µM). For the same compound, the MIC (Strept. faecium (D); [2]) was 3.13 µg/mL (≈ 4.01 µM), the MIC (Strept. pyogenes (77 A); [3]) was 0.098 µg/mL (≈ 0.125 µM) and the MIC (Staph. aureus (SG 511); [4]) was 0.78 µg/mL (≈ 0.999 µM). For the same compound, the MIC (Staph. aureus (285); [5]) was 1.56 µg/mL (≈ 2 µM), the MIC (Strept. pyogenes (308 A); [6]) was 0.19 µg/mL (≈ 0.243 µM) and the MHK (Paramyxo. III) was 4,44 µg/ml. For the same compound, the MHK (Adeno 5) was 0,16 µg/ml and the MHK (Herpes II) was 0,16 µg/ml.

With `COC1CC(CC2CCC(C)C(C(C)C(=O)O)O2)OC2(OC(C)(C3CCC(C)(C4OC(C5OC(O)(CO[Si](c6ccccc6)(c6ccccc6)C(C)(C)C)C(C)CC5C)CC4C)O3)CC2C)C1C` (stereo not shown) [Beispiel 9] the MHK (Herpes I) was 0,05 µg/ml, the MHK (Vaccina) was 4,44 µg/ml and the “DTM (Dosis Tolerata Maxima)” value (HeLa- bzw. Vero-Zellen) was 4,44 µg/ml. The MHK (Influenza A) was 0,05 µg/ml, the MHK (Rhinovirus II) was 4,44 µg/ml and the MIC (Staph. aureus (503)) was 0.78 µg/mL (≈ 0.81 µM). The MIC (Strept. faecium (D)) was 0.7 µg/mL (≈ 0.727 µM), the MIC (Strept. pyogenes (77 A)) was 0.025 µg/mL (≈ 0.026 µM) and the MIC (Staph. aureus (SG 511)) was 0.78 µg/mL (≈ 0.81 µM). The MIC (Staph. aureus (285)) was 0.78 µg/mL (≈ 0.81 µM), the MIC (Strept. pyogenes (308 A)) was 0.025 µg/mL (≈ 0.026 µM) and the MHK (Paramyxo. III) was 4,44 µg/ml. The MHK (Adeno 5) was 0,05 µg/ml and the MHK (Herpes II) was 0,05 µg/ml.

`COC1CC(CC2CCC(C)C(C(C)C(=O)O)O2)OC2(OC(C)(C3CCC(C)(C4OC(C5OC(O)(CSC#N)C(C)CC5C)CC4C)O3)CC2C)C1C` (stereo not shown) [Beispiel 4] showed an MIC (Staph. aureus (503)) of 0.78 µg/mL (≈ 1.02 µM), an MIC (Strept. faecium (D)) of 0.78 µg/mL (≈ 1.02 µM) and an MIC (Strept. pyogenes (77 A)) of 0.098 µg/mL (≈ 0.128 µM). The MIC (Staph. aureus (285)) was 0.78 µg/mL (≈ 1.02 µM) and the MIC (Strept. pyogenes (308 A)) was 0.098 µg/mL (≈ 0.128 µM).
